Consider one molecule from article PMC11211886 (Frontiers in Pharmacology, 2024).

Data set [1] is described as follows: Metabolic stability in dog liver microsomes. The data set is classed as in vitro ADME. The conditions noted are these: for CLint scaled at 1 µM / half-life at 1 µM: pH 7.4; for CLint scaled at 1 µM: read-out: Predicted CL int, iv vivo; for half-life at 1 µM: read-out: in vitro t1/2. The protocol:
(§1) FMO was deactivated by heating liver microsomes at 45°C for 5 min. […] The natural logarithm of the percentage of the drug remaining was plotted against the incubation time, and the slope of the linear regression (-k) was converted to in vitro half-lives (t1/2) using the following equation: […] (1) metabolic clearance is the major mechanism of clearance; (2) liver is the major organ of clearance; and (3) oxidation is the major metabolic pathway. CLint,in vitro=k / Cmicrosomes , Scaled CLint,in vivo=CLint,in vitro×microsomes yield×liver weight, where Cmicrosomes means the experimental protein concentration (0.5 mg/mL) in the incubation system. […] Then, the scaled in vivo intrinsic clearance was used to predict the systemic clearance (equal to the hepatic clearance) using the well-stirred venous equilibration model ([Houston, 1994]).

Data set [2] in a line: Metabolic stability in monkey liver microsomes. The data set is classed as in vitro ADME. On the procedure: as §1
In general terms: Microsomes from liver hold many membrane-bound enzymes, among them those of drug oxidation.

Where [3] appears, read: FMO-deactivated liver microsomes, female dog liver microsomes, FMO deactivation.
[4] abbreviates: FMO-deactivated liver microsomes, male dog liver microsomes, FMO deactivation.
The mark [5] stands for this setting: female dog liver microsomes, normal.
[6] abbreviates: male dog liver microsomes, normal.

On to `C[C@H](Nc1ncnc(N)c1C#N)c1cc2ncc(Cl)n2nc1-c1ccccc1` [Amdizalisib], for which the CLint scaled at 1 µM in data set [1] (setting [3]) was 3.02 L/h/kg; in data set [1] (setting [4]), 1.19 L/h/kg; in data set [1] (setting [5]), 2.89 L/h/kg; in data set [1] (setting [6]) it was 1.24 L/h/kg; in data set [2] (female, monkey, microsomes, pH 7.4, Predicted CL int, iv vivo) it was 1.15 L/h/kg; in data set [2] (male, monkey, microsomes, pH 7.4, Predicted CL int, iv vivo) it was 1.8 L/h/kg. For the same molecule, the CLint scaled at 1 µM in data set [2] (pH 7.4, female monkey liver microsomes, FMO deactivation, read-out: Predicted CL int, iv vivo) is 1.09 L/h/kg. The half-life at 1 µM in data set [1] (setting [3]) is 0.66 h; in data set [1] (setting [4]), 1.67 h; in data set [1] (setting [5]) it was 0.692 h; in data set [1] (setting [6]) it was 1.6 h; in data set [2] (female, monkey, microsomes, pH 7.4, in vitro t1/2) it was 1.63 h; in data set [2] (male, monkey, microsomes, pH 7.4, in vitro t1/2), 1.04 h. For the same molecule, the half-life at 1 µM in data set [2] (pH 7.4, female monkey liver microsomes, FMO deactivation, read-out: in vitro t1/2) was found to be 1.72 h. In addition, the “Predicted CL sys” value is 1.15 L/h/kg in data set [1] (female dog liver microsomes, FMO deactivation); 1.13 L/h/kg in data set [1] (setting [5]); 0.726 L/h/kg in data set [1] (male dog liver microsomes, FMO deactivation); 0.744 L/h/kg in data set [1] (setting [6]); 0.954 L/h/kg in data set [2] (male monkey liver microsomes, FMO deactivation).
